Assay [1] has as its system Plasmodium falciparum. Kind of assay: Antimalarial activity against chloroquine-resistant Plasmodium falciparum. The assay is classed as functional, organism-based.
The target in assay [2] is T1, Enoyl-acyl-carrier protein reductase (Plasmodium falciparum, UniProt Q965D5).
T1 sequence (Q965D5 whole entry): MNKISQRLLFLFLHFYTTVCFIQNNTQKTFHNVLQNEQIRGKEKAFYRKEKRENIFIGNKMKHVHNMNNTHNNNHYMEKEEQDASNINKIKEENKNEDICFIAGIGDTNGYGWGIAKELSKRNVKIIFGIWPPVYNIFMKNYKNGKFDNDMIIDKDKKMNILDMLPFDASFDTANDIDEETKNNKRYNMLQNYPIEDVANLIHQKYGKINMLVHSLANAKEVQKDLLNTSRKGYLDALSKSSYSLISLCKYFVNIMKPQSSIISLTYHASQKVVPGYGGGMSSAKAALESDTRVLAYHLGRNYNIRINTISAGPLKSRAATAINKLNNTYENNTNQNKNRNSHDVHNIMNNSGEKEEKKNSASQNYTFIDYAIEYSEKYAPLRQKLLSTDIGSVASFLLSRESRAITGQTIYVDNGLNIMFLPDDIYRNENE
Kind of assay: Inhibition of Plasmodium falciparum Fabl.

The subject of assay [3] is Plasmodium berghei. The assay is described as follows: Antimalarial activity against Plasmodium berghei infected in mice (Mus musculus) assessed as increase in survival of mice (Mus musculus) at 100 uM/kg. The assay is classed as functional.
Assay [4] relates to Plasmodium falciparum. Kind of assay: Antimalarial activity against Plasmodium falciparum NF54. The assay is classed as functional, organism-based.
Assay [5] relates to Plasmodium falciparum. The assay is described as follows: Antimalarial activity against Plasmodium falciparum K1. The assay is classed as functional, organism-based.
A further assay has as its system Plasmodium vivax. Kind of assay: Antimalarial activity against Plasmodium vivax infected in human HepG2-A16 cells assessed as reduction of trophozoites level. The assay is classed as functional. More on the design: scale not given: the % may be the effect or the level left.
Assay [6] concerns Plasmodium falciparum. Kind of assay: Antimalarial activity against Plasmodium falciparum W2. The assay is classed as functional, organism-based.
The test system of assay [7] is Plasmodium falciparum. The assay is described as follows: Antimalarial activity against chloroquine-sensitive Plasmodium falciparum 3D7. The assay is classed as functional, organism-based.
For assay [8], the system named is Plasmodium falciparum. Kind of assay: Antimalarial activity against Plasmodium falciparum 3D7. The assay is classed as functional, organism-based.
The test system of assay [9] is Plasmodium falciparum. Kind of assay: Antimalarial activity against chloroquine-resistant Plasmodium falciparum W2. The assay is classed as functional, organism-based.
The test system of assay [10] is Plasmodium falciparum. The assay is described as follows: Antimalarial activity against chloroquine-susceptible Plasmodium falciparum D6. The assay is classed as functional, organism-based.
Assay [11] concerns Plasmodium berghei. Kind of assay: Antiplasmodial activity against chloroquine-sensitive Plasmodium berghei. The assay is classed as functional, organism-based.
Assay [12] concerns Plasmodium falciparum. Kind of assay: Antimalarial activity against chloroquine-sensitive Plasmodium falciparum D6. The assay is classed as functional, organism-based.
The test system of assay [13] is Plasmodium falciparum. Kind of assay: Antimalarial activity against multidrug-resistant Plasmodium falciparum K1. The assay is classed as functional, organism-based.
Assay [14] relates to Plasmodium falciparum. The assay is described as follows: Antimalarial activity against chloroquine-sensitive Plasmodium falciparum. The assay is classed as functional, organism-based.
Assay [15] relates to Plasmodium falciparum. Kind of assay: Antimalarial activity against Plasmodium falciparum FCR3F86. The assay is classed as functional, organism-based.
Assay [16] concerns Plasmodium falciparum. The assay is described as follows: Antimalarial activity against Plasmodium falciparum D6. The assay is classed as functional, organism-based.
Assay [17] deals with Plasmodium falciparum. Kind of assay: Antimalarial activity against chloroquine-resistant Plasmodium falciparum Dd2. The assay is classed as functional, organism-based.

22 compounds from ChEMBL document CHEMBL1177693, “Antimalarials from nature” (Bioorg Med Chem, 2009) can be followed below.

Converted amounts (≈) assume the structure as drawn.

The term IC50 denotes the concentration at which inhibition is half-maximal. By ED50 is commonly meant the dose at which the effect has come halfway, by size or by number of responders.

In the assay with Plasmodium falciparum [1], `COc1ccc([C@H]2Oc3cc(O)cc(O)c3C(=O)[C@@H]2[C@H]2C(=O)c3c(O)cc(O)cc3O[C@@H]2c2ccc(O)cc2)cc1` [SIKOKIANIN C] displayed an IC50 of 0.56 µg/mL (≈ 1.01 µM).

`COc1ccc([C@@H]2Oc3cc(O)cc(O)c3C(=O)[C@H]2[C@H]2C(=O)c3c(O)cc(O)cc3O[C@H]2c2ccc(O)cc2)cc1` [SIKOKIANIN B] displayed an IC50 in the assay on Plasmodium falciparum [1] of 0.54 µg/mL (≈ 0.97 µM).

In [2], `OCC1=C[C@@H]2OCC[C@@H]2[C@@H]1CO` gave an IC50 of 588000 nM.

Regarding `C[C@@H]1CC[C@H]2[C@@H](C)C(=O)O[C@@H]3O[C@@]4(C)CC[C@@H]1[C@]32OO4` [ARTEMISININ], the Survival with Plasmodium berghei [3] came out at 2 days.

As to `COc1c2c(c(O)c3c4c(c(C)cc13)[C@@H]1O[C@@]3(C(OC)OC)O[C@@H]1[C@@](O[C@H]1C[C@@H](O)[C@@](O)(C(C)=O)[C@H](C)O1)(O4)[C@@]31CO1)C(=O)[C@@H](O)C[C@@H]2O[C@H]1C[C@@](C)(O)[C@H](O)[C@H](C)O1` [TRIOXACARCIN D], the IC50 with Plasmodium falciparum [4] turned out to be 0.0017 µg/mL; in the assay on Plasmodium falciparum [5], 0.0015 µg/mL.

Regarding `Oc1cccc2c1[nH]c1c(C3=C[C@]4(O)CC/C=C\CCCCN5CC[C@H]3[C@@]3(C[C@H]6/C=C\CCCCN6[C@@H]34)C5)nccc12` [ENT-8-HYDROXYMENZAMINE A], the Survival with Plasmodium berghei [3] was found to be 9 days.

`CC(CCC1(O)C[C@@H]2C[C@H]3[C@@H]4CCC5=CC(=O)CC[C@]5(C)[C@H]4CC[C@]3(C)[C@H]2[C@@H]1C)CO[C@@H]1O[C@H](CO)[C@@H](O)[C@H](O)[C@H]1O` (stereo not given in full): in the assay on Plasmodium vivax, the Activity worked out at 39%.

In the assay with Plasmodium falciparum [6], `COc1cc2c(cc1OC)[C@@H]1Cc3ccc(OC)c(OC)c3CN1CC2` [TETRAHYDROPALMATINE] displayed a half-inhibitory concentration (IC50) of 32600 nM.

In turn, `COc1cc(O)c2c(c1)O[C@H](c1ccccc1)CC2=O` [PINOSTROBIN] displayed an IC50 in the assay with Plasmodium falciparum [7] above 100000 nM.

Consider `CCCCCCCc1cc(/C=C2\N=C(c3ccc[nH]3)C=C2OC)[nH]c1C` [HEPTYL PRODIGIOSIN], for which the IC50 in the assay on Plasmodium falciparum [8] is 70 nM.

Take `CO[C@H]1C[C@@H]([C@@H](O)[C@@](C)(OC)[C@H](C)OC)O[C@]2(O[C@](C)([C@H]3CC[C@@H]([C@H]4CC[C@H]([C@H]5O[C@](C)(O)[C@H](C)[C@@H](O)[C@@H]5C)O4)O3)[C@H](OC)[C@H]2C)[C@H]1C`: the IC50 with Plasmodium falciparum [9] and in the assay with Plasmodium falciparum [10] was 0.1 µg/mL (≈ 0.145 µM) throughout.

In the assay on Plasmodium berghei [11], `COC(C)(C)[C@@H]1C=C2C(=O)[C@H]3O[C@H]3C3C=CC(C2C(=O)/C1=C/CO)[C@H]3O` (stereo not given in full) showed an ED50 of 5.2 mg/kg and an IC50 of 2.1 nM.

In the assay on Plasmodium falciparum [12], `COc1ccc(C[C@H]2NC[C@H](O)[C@H]2OC(C)=O)cc1` [ANISOMYCIN] registered an IC50 of 4600 nM.

Take `O=c1cc(-c2ccc(O)c(O)c2)oc2cc(O[C@@H]3O[C@H](CO)[C@@H](O)[C@H](O)[C@H]3O)cc(O)c12` [GALUTEOLIN]: the 50% inhibitory concentration (IC50) in assay [2] is 22300 nM.

For `O[C@@H]1CCCN2CC[C@@H]1O[C@@]13CC[C@@H](OC[C@]45CN6CCCC/C=C\CC[C@](O)(C=C(c7nccc8c7[nH]c7ccccc78)[C@@H]4CC6)[C@H]25)[C@@H](O)CCN1[C@@H]1[C@]2(CN4CCCC/C=C\CC[C@]1(O)C=C(c1nccc5c1[nH]c1ccccc15)[C@@H]2CC4)C3` [NEO-KAULUAMINE], the Survival in the assay on Plasmodium berghei [3] was found to be 9 days.

`COC(=O)[C@]12OC[C@]34[C@H]([C@@H](O)[C@@H]1O)[C@@]1(C)C5=CC(=O)OC5=C[C@@H](C)[C@@H]1C[C@H]3OC(=O)[C@H](OC(C)=O)[C@@H]24` [NEOSERGEOLIDE] had an IC50 in the assay on Plasmodium falciparum [13] of 2 nM.

Consider `COc1c2c(c(O)c3c4c(c(C)cc13)[C@@H]1O[C@@]3(C(OC)OC)O[C@@H]1[C@@](O[C@H]1C[C@@H](O)[C@@](O)(C(C)=O)[C@H](C)O1)(O4)[C@@]31CO1)C(=O)[C@@H](O)C[C@@H]2O[C@H]1C[C@@](C)(O)[C@H](OC(C)=O)[C@H](C)O1` [TRIOXACARCIN A], for which the figures for the IC50 in the assay on Plasmodium falciparum [4] and in the assay on Plasmodium falciparum [5] were 0.0017 µg/mL and 0.0015 µg/mL, respectively.

`Cc1c2c(cc3c1C(=O)C=C(C(C)C)C3=O)C(C)(C)CCC2` [12,16-DIDEOXY AEGYPTINONE B]: the IC50 is 1.3 µg/mL (≈ 4.39 µM) in the assay with Plasmodium falciparum [14] and 1.4 µg/mL (≈ 4.72 µM) with Plasmodium falciparum [1].

`Cc1cc(=O)c(O)cc2c1C[C@H]1CC(C)(C)/C=C/C[C@@]3(C)Oc4cc(O)c(=O)cc(C)c4C[C@@H]3C[C@H](O)[C@]1(C)O2` [PYCNIDIONE]: the values for the IC50 in the assay with Plasmodium falciparum [6], in the assay with Plasmodium falciparum [15] and in the assay on Plasmodium falciparum [16] were 370 nM, 280 nM and 750 nM, respectively.

On to `C[C@@H]1O[C@@H](Oc2cc3oc(-c4ccc(O)c(O)c4)cc(=O)c3c(O)c2O)[C@H](O)[C@H](O)[C@H]1O`, for which the IC50 with Plasmodium falciparum [4] is 3320 nM; in the assay with Plasmodium falciparum [5], 2130 nM.

Regarding `COc1ccc(-c2cc(=O)oc3c(OC)c(OC)cc(OC)c23)cc1`, half-maximal inhibition in the assay on Plasmodium falciparum [17] (IC50) was put at 3.6 µg/mL (≈ 10.5 µM).

With `CCN(CC)CCCC(C)Nc1ccnc2cc(Cl)ccc12` (stereo not given) [CHLOROQUINE], the Survival with Plasmodium berghei [3] worked out at 6 days.
